# Assay results from ChEMBL document CHEMBL1201862, “PubChem BioAssay data set” (2004).
# Calls of active or inactive are those of the source.
# What was measured:
# [1] = inhibitors of HIV Env-driven cell fusion, dose response, cherry-pick (AID 652057); format: functional, cell-based
# [2] = CEM21 lymphoblast cell cytotoxicity, dose response, cytotoxicity control for viral fusion inhibitor project, CellTiter-Glo luminescence, cherry-picked (AID 652042); format: functional, cell-based;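 note: potency for signal decrease meaning cytotoxicity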
# [3] = ZM109 Env clade C HIV-1 fusion inhibitors, dose response, HeLa effector, CEM target cells, luciferase, cherry-pick (AID 652058); format: functional, cell-based
# [4] = off-target signal loss in HeLa-CEM21 co-culture – HeLa F-luc CTL cells, cherry-picked, counter-screen for HIV-1 Env fusion inhibitor project, dose response (AID 652040); format: functional, cell-based;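 note: potency for signal decrease marking cytotoxic or nonspecific inhibition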
# [5] = inhibitors of clade B AD8 Env fusion, dose response, cell-based, cherry-pick (AID 652062); format: functional;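 note: luciferase signal from cell-cell fusion driven by HIV-1 clade B AD8 Env; potency is for inhibitors of fusion seen as a drop in luminescence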
# cells [6] = format: functional, cell-based
# cells [7] = format: functional, cell-based; remark: listed apart in the source
# [8] = NIH-3T3 fibroblast cytotoxicity, dose response, cytotoxicity control, cell-based, fluorescence, Alamar Blue, secondary assay (AID 2327); format: functional;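 note: NIH-3T3 mouse fibroblasts cultured with fluconazole at 8 µg/mL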
# [9] = C. albicans growth with fluconazole, confirmation, fluorescence, retest (AID 2467); format: functional, cell-based
# [10] = molecular target: T1, Serine/threonine-protein phosphatase (Candida dubliniensis (strain CD36 / CBS 7987 / NCPF 3949 / NRRLY-17841) (Yeast), UniProt B9W6M3); assay: calcineurin pathway inhibitors in yeast reporter, dose response, S. cerevisiae, CDRE-lacZ, luminescence, secondary (AID 2388); format: functional, cell-based;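 note: yeast reporter cells carrying a calcineurin-responsive lacZ construct stimulated with calcium chloride; luminescent beta-galactosidase reporter signal in whole cells rather than isolated phosphatase activity; potency for inhibition where a drop in reporter signal means calcineurin blockade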
# T1 sequence (B9W6M3 whole entry): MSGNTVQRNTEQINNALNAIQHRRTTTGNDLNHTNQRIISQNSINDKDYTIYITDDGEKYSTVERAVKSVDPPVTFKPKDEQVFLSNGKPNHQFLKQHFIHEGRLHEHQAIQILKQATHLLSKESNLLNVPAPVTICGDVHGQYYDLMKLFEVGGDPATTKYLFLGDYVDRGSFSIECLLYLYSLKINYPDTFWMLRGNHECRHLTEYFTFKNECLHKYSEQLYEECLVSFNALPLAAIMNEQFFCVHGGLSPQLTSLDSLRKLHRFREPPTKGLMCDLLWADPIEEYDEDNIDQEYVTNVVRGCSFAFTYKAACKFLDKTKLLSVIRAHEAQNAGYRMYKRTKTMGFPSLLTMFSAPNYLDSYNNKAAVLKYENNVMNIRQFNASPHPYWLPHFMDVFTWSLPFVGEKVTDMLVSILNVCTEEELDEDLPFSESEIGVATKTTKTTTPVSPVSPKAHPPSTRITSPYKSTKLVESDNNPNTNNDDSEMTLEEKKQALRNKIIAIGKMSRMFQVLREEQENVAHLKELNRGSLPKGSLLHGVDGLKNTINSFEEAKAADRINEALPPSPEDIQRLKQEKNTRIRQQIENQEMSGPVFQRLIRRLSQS
# [11] = molecular target: ATP-dependent molecular chaperone HSP82 (Candida albicans (strain WO-1) (Yeast), UniProt C4YTQ8); assay: loss of DOC-induced GRE-beta-galactosidase reporter signal, dose response, Hsp90 inhibitor project, S. cerevisiae, luminescence (AID 2400); format: functional, cell-based;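 note: beta-galactosidase luminescence from glucocorticoid response element reporter as proxy for Hsp90 function; inhibitor potency where signal loss means Hsp90 inhibition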
# ATP-dependent molecular chaperone HSP82, sequence (C4YTQ8 whole entry): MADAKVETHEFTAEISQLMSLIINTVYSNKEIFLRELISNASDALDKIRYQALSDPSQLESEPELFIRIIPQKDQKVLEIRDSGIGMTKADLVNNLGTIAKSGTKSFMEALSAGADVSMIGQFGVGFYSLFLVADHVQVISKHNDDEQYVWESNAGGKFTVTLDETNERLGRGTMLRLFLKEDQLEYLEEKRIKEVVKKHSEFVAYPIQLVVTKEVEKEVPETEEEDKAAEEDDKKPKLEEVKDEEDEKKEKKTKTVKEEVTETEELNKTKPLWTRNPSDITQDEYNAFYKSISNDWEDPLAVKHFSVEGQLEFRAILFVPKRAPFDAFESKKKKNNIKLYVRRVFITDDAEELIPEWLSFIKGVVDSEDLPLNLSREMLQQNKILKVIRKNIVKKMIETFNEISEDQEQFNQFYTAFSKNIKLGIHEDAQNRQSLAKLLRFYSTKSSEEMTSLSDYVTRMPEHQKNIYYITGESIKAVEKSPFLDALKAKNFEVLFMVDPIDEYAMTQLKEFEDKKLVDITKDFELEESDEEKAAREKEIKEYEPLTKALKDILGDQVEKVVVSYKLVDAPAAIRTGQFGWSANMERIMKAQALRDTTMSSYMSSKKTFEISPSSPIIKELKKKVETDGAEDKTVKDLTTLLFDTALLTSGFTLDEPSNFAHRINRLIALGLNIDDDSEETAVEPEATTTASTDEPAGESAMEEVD
# [12] = molecular target: T2, Corticotropin-releasing factor receptor 2/Corticotropin-releasing factor-binding protein (Homo sapiens, UniProt P24387+Q13324); assay: activators of CRF receptor 2 with binding protein – uHTS hits, confirmation (AID 602473); format: functional; conditions: read-out: EC50_Mean
# T2 sequence (Q13324 whole entry): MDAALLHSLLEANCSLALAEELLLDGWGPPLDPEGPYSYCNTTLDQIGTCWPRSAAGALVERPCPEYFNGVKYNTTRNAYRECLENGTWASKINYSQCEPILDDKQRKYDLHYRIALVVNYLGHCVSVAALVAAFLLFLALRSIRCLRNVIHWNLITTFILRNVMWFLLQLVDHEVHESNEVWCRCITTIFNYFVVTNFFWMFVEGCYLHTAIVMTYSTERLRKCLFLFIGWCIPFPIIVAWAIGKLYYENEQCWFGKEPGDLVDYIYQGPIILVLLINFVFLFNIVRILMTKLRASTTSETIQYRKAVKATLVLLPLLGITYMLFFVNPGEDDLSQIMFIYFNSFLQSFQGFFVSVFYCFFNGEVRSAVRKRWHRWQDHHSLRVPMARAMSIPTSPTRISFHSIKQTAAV
# T2 sequence (P24387 whole entry): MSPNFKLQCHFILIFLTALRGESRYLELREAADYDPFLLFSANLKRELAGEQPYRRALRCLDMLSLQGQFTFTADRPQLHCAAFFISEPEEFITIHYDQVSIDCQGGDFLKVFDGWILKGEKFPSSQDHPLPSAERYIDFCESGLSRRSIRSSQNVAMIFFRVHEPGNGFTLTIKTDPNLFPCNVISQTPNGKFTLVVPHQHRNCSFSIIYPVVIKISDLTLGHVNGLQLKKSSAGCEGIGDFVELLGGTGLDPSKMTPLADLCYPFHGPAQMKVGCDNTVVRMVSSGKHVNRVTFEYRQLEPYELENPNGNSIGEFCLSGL
# [13] = tested on: Streptococcus sp. 'group A'; assay: growth inhibition of control SK(-) GAS strain, dose response, counter-screen for streptokinase expression inhibitor project, luminescence, kanamycin, BacTiterGlo, confirmation (AID 1900); format: functional, organism-based
# Streptokinase A = molecular target: T3, Streptokinase A (Streptococcus pyogenes serotype M1, UniProt P10520); assay: S. pyogenes streptokinase expression inhibitors, potency, dose response, plasminogen activation absorbance, OD405 (AID 1914); format: functional, Streptococcus pyogenes M1 GAS;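 note: secreted streptokinase activity via plasminogen activation per viability signal from cell pellet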
# T3 sequence (P10520 whole entry): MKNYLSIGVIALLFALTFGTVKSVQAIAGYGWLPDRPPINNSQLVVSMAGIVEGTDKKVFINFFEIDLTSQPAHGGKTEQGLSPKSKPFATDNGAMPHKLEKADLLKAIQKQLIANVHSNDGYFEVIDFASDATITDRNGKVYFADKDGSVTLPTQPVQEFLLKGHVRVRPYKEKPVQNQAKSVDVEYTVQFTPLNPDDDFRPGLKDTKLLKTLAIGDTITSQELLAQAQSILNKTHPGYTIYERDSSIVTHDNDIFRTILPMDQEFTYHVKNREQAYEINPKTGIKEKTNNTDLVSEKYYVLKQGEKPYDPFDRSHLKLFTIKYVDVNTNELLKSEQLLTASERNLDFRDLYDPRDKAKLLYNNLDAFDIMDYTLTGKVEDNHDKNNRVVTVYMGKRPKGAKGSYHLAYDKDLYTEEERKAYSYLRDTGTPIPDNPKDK
# Streptococcus = assay: Group A Streptococcus viability loss, dose response, counter-screen for streptokinase expression inhibitor project, luminescence, BacTiterGlo (AID 1915); format: functional, organism-based;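 note: potency for reduction of bacterial viability or growth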
# [14] = molecular target: T4, Sentrin-specific protease 8 (Homo sapiens, UniProt Q96LD8); format: functional
# T4 sequence (Q96LD8 whole entry): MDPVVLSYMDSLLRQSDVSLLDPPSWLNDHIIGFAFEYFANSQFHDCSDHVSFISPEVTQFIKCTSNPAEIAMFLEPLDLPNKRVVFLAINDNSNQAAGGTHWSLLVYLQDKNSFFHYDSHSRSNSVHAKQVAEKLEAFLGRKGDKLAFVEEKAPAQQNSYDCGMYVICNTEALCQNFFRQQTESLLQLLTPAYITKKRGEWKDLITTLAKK
# [15] = molecular target: T4, Sentrin-specific protease 8; format: functional; remark: listed apart in the source
# H9c2 = assay: cells; format: functional, cell-based; conditions: Rattus norvegicus, H9c2, Myocardium;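 note: confirmatory concentration-response retest of ultra-high-throughput screening hits for modulation of myocardial damage; cell death induced by hydrogen peroxide oxidative stress; compound pretreatment for 60 min then peroxide exposure for 2 h; potency is for protecting the cells against peroxide damage rather than for killing them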
# [16] = molecular target: 26S proteasome non-ATPase regulatory subunit 14 (Homo sapiens, UniProt O00487); assay: inhibition of proteasome subunit RPN11 – biochemical, fluorescence polarization, uHTS hits, confirmation (AID 602368); format: functional
# 26S proteasome non-ATPase regulatory subunit 14, sequence (O00487 whole entry): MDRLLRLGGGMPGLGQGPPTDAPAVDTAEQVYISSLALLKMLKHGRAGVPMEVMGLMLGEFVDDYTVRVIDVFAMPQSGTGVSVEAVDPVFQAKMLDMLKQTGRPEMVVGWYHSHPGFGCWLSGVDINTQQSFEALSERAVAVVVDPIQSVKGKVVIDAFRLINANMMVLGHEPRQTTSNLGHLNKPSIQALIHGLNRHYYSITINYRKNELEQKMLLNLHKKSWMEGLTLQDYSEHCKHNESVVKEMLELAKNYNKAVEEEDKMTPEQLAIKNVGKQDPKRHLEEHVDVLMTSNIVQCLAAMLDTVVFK
# [17] = molecular target: 72 kDa type IV collagenase (Homo sapiens, UniProt P08253); assay: Dose Response validation of uHTS RPN11 inhibitor hits using a MMP-2 Fluorescence assay.; format: functional
# 72 kDa type IV collagenase, sequence (P08253 whole entry): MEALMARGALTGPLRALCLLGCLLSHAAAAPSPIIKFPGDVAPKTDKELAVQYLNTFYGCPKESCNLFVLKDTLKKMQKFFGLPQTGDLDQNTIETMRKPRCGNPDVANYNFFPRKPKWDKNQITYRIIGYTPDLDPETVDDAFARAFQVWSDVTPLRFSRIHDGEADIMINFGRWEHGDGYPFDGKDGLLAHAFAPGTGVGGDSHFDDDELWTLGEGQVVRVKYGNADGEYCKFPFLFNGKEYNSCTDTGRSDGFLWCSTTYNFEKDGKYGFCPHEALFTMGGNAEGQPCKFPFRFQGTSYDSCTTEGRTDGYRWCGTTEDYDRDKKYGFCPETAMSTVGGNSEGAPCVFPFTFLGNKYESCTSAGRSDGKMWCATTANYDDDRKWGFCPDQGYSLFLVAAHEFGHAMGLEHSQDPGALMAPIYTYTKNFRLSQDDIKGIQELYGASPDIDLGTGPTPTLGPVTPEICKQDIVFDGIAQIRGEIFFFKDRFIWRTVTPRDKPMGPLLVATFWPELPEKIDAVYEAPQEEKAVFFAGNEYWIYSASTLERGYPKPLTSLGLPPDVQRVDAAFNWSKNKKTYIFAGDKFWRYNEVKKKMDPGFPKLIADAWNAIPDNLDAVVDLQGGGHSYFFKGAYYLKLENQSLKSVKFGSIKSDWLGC
# Prothrombin = Prothrombin (Bos taurus, UniProt P00735); assay: thrombin inhibition, dose response, biochemical, fluorescence polarization, uHTS hits (AID 602369); format: functional
# [18] = molecular target: T5, Small ubiquitin-related modifier 1 (Homo sapiens, UniProt P63165); assay: inhibitors of SUMO1 peptide binding, dose response, biochemical, fluorescence polarization, uHTS hits (AID 624382); format: functional; conditions: read-out: IC50_Mean
# T5 sequence (P63165 whole entry): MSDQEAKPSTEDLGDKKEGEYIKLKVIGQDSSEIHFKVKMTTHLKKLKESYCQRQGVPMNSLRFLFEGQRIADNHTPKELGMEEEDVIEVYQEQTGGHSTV
# [19] = molecular target: T5, Small ubiquitin-related modifier 1; assay: inhibitors of SUMO1 partner interactions, dose response, biochemical, FRET (AID 624383); format: functional; conditions: read-out: IC50_Mean
structure (smiles),measurement,setting,value
COC(=O)[C@]12C[C@H](CC(=O)NCc3ccc(C)o3)C(=O)N(CCC3=CCCCC3)C1=C[C@H](C(C)(C)C)O[C@@H]2C,AC50,[1],1.28 µM (active)
same,AC50,[2],20.3 µM (active)
same,AC50,[3],< 0.26 µM (active)
same,AC50,[4],1.71 µM (active)
same,AC50,[5],2.73 µM (active)
O=C(c1nc2ccccn2c1CNCC1OCCc2ccccc21)N1CCOCC1 (configuration not stated),IC50,cells [6],> 29.9 µM (inactive)
same,EC50,cells [7],> 29.9 µM (inactive)
CCOC(=O)Cc1csc(NC(=O)CSc2nnc(-c3ccncc3)o2)n1,EC50,[8],> 150 µM (inactive)
same,EC50,[9],0.517 µM (active)
same,EC50,[10],> 180 µM (inactive)
same,EC50,[11],> 150 µM (inactive)
same,EC50,[12],> 53 µM (inactive)
O=C(Nc1nnc(-c2ccncc2)o1)c1ccc2ccccc2c1,EC50,[8],> 150 µM (inactive)
same,EC50,[13],6.52 µM (active)
same,EC50,Streptokinase A,> 150 µM (not active)
same,EC50,[9],1.47 µM (active)
same,EC50,[10],> 180 µM (inactive)
same,EC50,Streptococcus,19.5 µM (active)
same,EC50,[11],> 150 µM (inactive)
CC(=O)Nc1ccc(NC(=O)COC(=O)c2ccc([N+](=O)[O-])o2)cc1,IC50,[14],7.03 µM (active)
same,IC50,[15],11.8 µM (active)
COc1cc(/C=N/NC(=O)c2cccnc2)ccc1OCC(=O)Nc1ccccc1Cl,IC50,H9c2,> 79 µM (inactive)
same,IC50,[16],47 µM (active)
same,IC50,[17],> 100 µM (inactive)
same,IC50,Prothrombin,> 100 µM (inactive)
same,IC50,[18],> 66.6 µM (inactive)
same,IC50,[19],100 µM (inactive)
